Assays:
hMLH1 = hMLH1 mRNA levels by TaqMan qRT-PCR in transfected HEK293T cells; type: cell-based, human; settings: for activation of hMLH1 by dCas9 direct fusions (relative change in mRNA levels): same combination of sgRNAs as Casilio-ME; for hMLH1 expression, fold over background (change in mRNA levels): sgRNAs 3+7, 60 hours post-transfection, GAPDH normalised
Protocol: To test the system, HEK293T cells were transfected with Casilio-ME components including Ct or Nt-fusion TET1-effector and a combination of 3 or 2 sgRNAs. Relative levels of hMLH1 mRNA were determined in TaqMan assays by using RNA extracted from cells 60 hours post-transfection and GAPDH as endogenous control for normalization of qRT-PCR measurements.
Cell culture and transfection. HEK293T cells were cultivated in Dulbecco's modified Eagle's medium (DMEM)(Sigma) with 10% fetal bovine serum (FBS)(Lonza), 4% Glutamax (Gibco), 1% Sodium Pyruvate (Gibco) and penicillin-streptomycin (Gibco) in an incubator set to 37° C. and 5% CO2. When indicated cells were treated with 2.5 μM or 5 μM 5-Azacytidine (sigma) as indicated with a daily change of medium containing freshly diluted drug. Cells were seeded into 12-well plates at 150,000 cells per well the day before being transfected with 100 ng of dCas9 construct, 100 ng of modified sgRNA construct and 200 ng of PUF-fusion with Attractene transfection reagent according to manufacturer's instructions (Qiagen). In dCas9-direct fusion experiments, cells were transfected with 200 ng dCas9-fusion constructs and 200 ng of modified sgRNA constructs. Transfected cells were harvested 60 hours after transfection, or otherwise indicated, and cell pellets were used for extractions of RNA, genomic DNA and protein.
Quantitative RT-PCR analysis. Cells were harvested, washed with Dulbecco's phosphate-buffered saline (dPBS), centrifuged at 125×g for 5 min and then the flash-frozen pellets were stored at −80° C. RNA was extracted using RNeasy Plus Mini Kit according to the manufacturer's instructions (Qiagen). cDNA libraries were made using Applied Biosystems High Capacity RNA-to-cDNA kit with 200 ng to 1 μg of RNA. TaqMan gene expression assays (Applied Biosystems) were designed using GAPDH (Hs03929097, VIC) as endogenous control and hMLH1 (Hs00179866, FAM) as target. TaqMan Universal Master Mix II, with UNG (Applied Biosystems) was used for Quantitative PCR (qPCR), with 2 μl of diluted cDNA used for each reaction. Activation was analyzed with the Applied Biosystems ViiA7 instrument. Gene expression levels were calculated by “delta delta Ct” algorithm and normalized to control samples.

TetO::tdTomato transgene = TetO::tdTomato transgene activation measured by FACS; type: cell-based
Text: In particular, to test whether appending PBS to the 3′ end of sgRNA affects sgRNA function, a series of modified Tet-targeting (sgTetO) or non-targeting control (sgControl) sgRNA were generated, with 0 copy, 5 copies, 15 copies, 25 copies, and 47 copies of the 8-mer Pumilio homologue domain-binding sequence (PBS) for PUF (3-2) (also simply referred to as PUFa) [PBS32 or PBSa: SEQ ID NO:8 (5′-UGUAUgUA-3′)], PUF(6-2/7-2) (also simply referred to as PUFb) [PBS6272 or PBSb: SEQ ID NO:9 (5′-UugAUAUA-3′)].
Cells were transfected with dCas9-VP64 with the different sgRNA scaffolds, and were analyzed by fluorescent-activated cell sorting (FACS) two days after transfection (FIG. 1B).
Fusions of PUF(3-2)::VP64 and PUF(6-2/7-2)::VP64, which interacts with sgRNA (sgRNA-PBS32) with 5′-UGUAUgUA-3′ binding sites and sgRNA-PBS6272 with 5′-UugAUAUA-3′ binding sites, respectively, were created, and their activity to turn on tdTomato expression in conjunction with dCas9 was tested. In addition, two additional pairs, PUFw-VP64 recognizing PBSw (5′-UGUAUAUA-3′) and PUFc-VP64 recognizing PBSc (5′-UugAUgUA-3′), were also constructed to test their ability to activate the same TetO::tdTomato expression in conjunction with dCas9 (FIG. 1D).
Cell Culture for Experiments. HEK293T cells were cultivated in Dulbecco's modified Eagle's medium (DMEM)(Sigma) with 10% fetal bovine serum (FBS)(Lonza), 4% Glutamax (Gibco), 1% Sodium Pyruvate (Gibco) and penicillin-streptomycin (Gibco). Incubator conditions were 37° C. and 5% CO2. For activation experiments, cells were seeded into 12-well plates at 100,000 cells per well the day before being transfected with 200 ng of dCas9 construct, 100 ng of modified sgRNA and 100 ng of PUF-fusion with Attractene transfection reagent (Qiagen). After transfection, cells were grown for 48 hrs and harvested for either RNA extraction or fluorescent-activated cell sorting (FACS). […]
Fluorescent-Activated Cell Sorting. […] Samples were analyzed on a FACScalibur flow cytometer using CellQuest Pro software (BD Bioscience). […] were collected in each run.

Row | Molecule | activation of hMLH1 by dCas9 direct fusions (relative change in mRNA levels) (hMLH1; HEK293T) | hMLH1 expression, fold over background (change in mRNA levels) (hMLH1; HEK293T) | also measured
1 | TET1(CD)-dCas9: direct fusion of TET1(CD) to the N-terminus of dCas9 | much weaker activation than its respective C-terminal fusion |  | 
2 | dCas9-TET1(CD): direct fusion of TET1(CD) to the C-terminus of dCas9 | relatively weak activation | 19 fold | hMLH1 activation relative to dCas9-p65HSF1 (hMLH1; HEK293T, same sgRNA combination): at best twice the activity obtained with transcription activator dCas9 fusion; hMLH1 activation as percentage of the activation obtained using Casilio-ME (hMLH1; same sgRNAs combination, parallel experiment): about 14%
3 | TET1(CD)-PUFa: hTET1 catalytic domain fused to the N-terminus of PUFa (protein) MGPAELPTCSCLDRVIQKDKGPYYTHLGAGPSVAAVREIMENRYGQKGNAIRIEIVVYTGKEGKSSHGCPIAKWVLRRSSDEEKVLCLVRQRTGHHCPTAVMVVLIMVWDGIPLPMADRLYTELTENLKSYNGHPTDRRCTLNENRTCTCQGIDPETCGASFSFGCSWSMYFNGCKFGRSPSPRRFRIDPSSPLHEKNLEDNLQSLATRLAPIYKQYAPVAYQNQVEYENVARECRLGSKEGRPFSGVTACLDFCAHPHRDIHNMNNGSTVVCTLTREDNRSLGVIPQDEQLHVLPLYKLSDTDEFGSKEGMEAKIKSGAIEVLAPRRKKRTCFTQPVPRSGKKRAAMMTEVLAHKIRAVEKKPIPRIKRKNNSTTTNNSKPSSLPTLGSNTETVQPEVKSETEPHFILKSSDNTKTYSLMPSAPHPVKEASPGFSWSPKTASATPAPLKNDATASCGFSERSSTPHCTMPSGRLSGANAAAADGPGISQLGEVAPLPTLSAPVMEPLINSEPSTGVTEPLTPHQPNHQPSFLTSPQDLASSPMEEDEQHSEADEPPSDEPLSDDPLSPAEEKLPHIDEYWSDSEHIFLDANIGGVAIAPAHGSVLIECARRELHATTPVEHPNRNHPTRLSLVFYQHKNLNKPQHGFELNKIKFEAKEAKNKKMKASEQKDQAANEGPEQSSEVNELNQIPSHKALTLTHDNVVTVSPYALTHVAGPYNHWVIDGGGGSDPKKKRKVDPKKKRKVDPKKKRKVGSTGSRNDGGGGSGGGGSGGGGSGRAGILPPKKKRKVSRGRSRLLEDFRNNRYPNLQLREIAGHIMEFSQDQHGSRFIQLKLERATPAERQLVFNEILQAAYQLMVDVFGNYVIQKFFEFGSLEQKLALAERIRGHVLSLALQMYGSRVIEKALEFIPSDQQNEMVRELDGHVLKCVKDQNGNHVVQKCIECVQPQSLQFIIDAFKGQVFALSTHPYGCRVIQRILEHCLPDQTLPILEELHQHTEQLVQDQYGNYVIQHVLEHGRPEDKSKIVAEIRGNVLVLSQHKFASNVVEKCVTHASRTERAVLIDEVCTMNDGPHSALYTMMKDQYANYVVQKMIDVAEPGQRKIVMHKIRPHIATLRKYTYGKHILAKLEKYYMKNGVDLGDPKKKRKVDPKKKRKVGGRGGGGSGGGGSGGGGSGPA |  | ≤ 20 fold | 
4 | PUFa-TET1(CD): hTET1 catalytic domain (residues 1418 to 2136) fused to the C-terminus of PUFa (protein) MIDGGGGSDPKKKRKVDPKKKRKVDPKKKRKVGSTGSRNDGGGGSGGGGSGGGGSGRAGILPPKKKRKVSRGRSRLLEDFRNNRYPNLQLREIAGHIMEFSQDQHGSRFIQLKLERATPAERQLVFNEILQAAYQLMVDVFGNYVIQKFFEFGSLEQKLALAERIRGHVLSLALQMYGSRVIEKALEFIPSDQQNEMVRELDGHVLKCVKDQNGNHVVQKCIECVQPQSLQFIIDAFKGQVFALSTHPYGCRVIQRILEHCLPDQTLPILEELHQHTEQLVQDQYGNYVIQHVLEHGRPEDKSKIVAEIRGNVLVLSQHKFASNVVEKCVTHASRTERAVLIDEVCTMNDGPHSALYTMMKDQYANYVVQKMIDVAEPGQRKIVMHKIRPHIATLRKYTYGKHILAKLEKYYMKNGVDLGDPKKKRKVDPKKKRKVGGRGGGGSGGGGSGGGGSGPAELPTCSCLDRVIQKDKGPYYTHLGAGPSVAAVREIMENRYGQKGNAIRIEIVVYTGKEGKSSHGCPIAKWVLRRSSDEEKVLCLVRQRTGHHCPTAVMVVLIMVWDGIPLPMADRLYTELTENLKSYNGHPTDRRCTLNENRTCTCQGIDPETCGASFSFGCSWSMYFNGCKFGRSPSPRRFRIDPSSPLHEKNLEDNLQSLATRLAPIYKQYAPVAYQNQVEYENVARECRLGSKEGRPFSGVTACLDFCAHPHRDIHNMNNGSTVVCTLTREDNRSLGVIPQDEQLHVLPLYKLSDTDEFGSKEGMEAKIKSGAIEVLAPRRKKRTCFTQPVPRSGKKRAAMMTEVLAHKIRAVEKKPIPRIKRKNNSTTTNNSKPSSLPTLGSNTETVQPEVKSETEPHFILKSSDNTKTYSLMPSAPHPVKEASPGFSWSPKTASATPAPLKNDATASCGFSERSSTPHCTMPSGRLSGANAAAADGPGISQLGEVAPLPTLSAPVMEPLINSEPSTGVTEPLTPHQPNHQPSFLTSPQDLASSPMEEDEQHSEADEPPSDEPLSDDPLSPAEEKLPHIDEYWSDSEHIFLDANIGGVAIAPAHGSVLIECARRELHATTPVEHPNRNHPTRLSLVFYQHKNLNKPQHGFELNKIKFEAKEAKNKKMKASEQKDQAANEGPEQSSEVNELNQIPSHKALTLTHDNVVTVSPYALTHVAGPYNHWVID |  | 135 fold | time course of activation of hMLH1 transcription (hMLH1; HEK293T, RNA guides 3 and 7, 3, 4, 5 and 6 days post transfection): maintained during the course of these transient transfections
5 | PUFa-VP64: PUF(3-2) domain with NLS fused to VP64 (protein) MGILPPKKKRKVSRGRSRLLEDFRNNRYPNLQLREIAGHIMEFSQDQHGSRFIQLKLERATPAERQLVFNEILQAAYQLMVDVFGNYVIQKFFEFGSLEQKLALAERIRGHVLSLALQMYGSRVIEKALEFIPSDQQNEMVRELDGHVLKCVKDQNGNHVVQKCIECVQPQSLQFIIDAFKGQVFALSTHPYGCRVIQRILEHCLPDQTLPILEELHQHTEQLVQDQYGNYVIQHVLEHGRPEDKSKIVAEIRGNVLVLSQHKFASNVVEKCVTHASRTERAVLIDEVCTMNDGPHSALYTMMKDQYANYVVQKMIDVAEPGQRKIVMHKIRPHIATLRKYTYGKHILAKLEKYYMKNGVDLGGPAGSGRADALDDFDLDMLGSDALDDFDLDMLGSDALDDFDLDMLGSDALDDFDLDMLYID |  |  | activation with only one PBSa (TetO::tdTomato transgene; TetO-targeting sgRNA with 1 copy of PBSa): previously not observed; transgene activation with 15, 20, and 47 copies of PBS (TetO::tdTomato transgene; with dCas9 and sgTetO-PBS, compared with 5-10 copies): slightly lower, albeit still substantial transgene activation

— patent US11780895B2, “Targeted DNA demethylation and methylation” (The Jackson Laboratory, priority 2016, dated 2023)
